Assay [1] relates to HT29. Put plainly: Cell viability MTS assay. In kind it is cell-based, human. The method, then: (§1) Cell viability was determined by measuring the activity of dehydrogenase enzymes in metabolically active cells using a tetrazolium compound, MTS. The assay was performed as described in Promega Technical Bulletin No. 169 (CellTiter 96 Aqueous Non-Radioactive Cell Proliferation Assay). Thirteen human cancer cell lines were assayed (see, e.g., Table 1). Cells were maintained at 37° C., 5% CO2. Adherent cells were maintained DMEM media (4.5 g/L glucose) supplemented with 15% heat-inactivated FBS, 10 mM L-glutamine, and 10 mM Hepes pH 7.5. Suspension cells were maintained in RPMI 1640 media, supplemented with 10% heat-inactivated FBS and 10 mM Hepes pH 7.5. Briefly, cells were seeded in 96-well plates as set forth in Table 1 and incubated for 16-24 hours. Candidate compounds were serially diluted in DMSO, further diluted in cell culture media, and then added to cells (final DMSO concentration of 0.33%). Cells were incubated in the presence of candidate compound for 72 hours. MTS stock solution (MTS 2 gm/L, PMS […] in PBS) was added to the cells (final concentration MTS […] and PMS 7.67 mg/L) and incubated for 4 hours. SDS was added to a final concentration of 1.4% and absorbance at 490 nm was measured within two hours using a platereader. The IC50 was defined as the concentration of compound that results in a 50% reduction in the number of viable cells as compwered to control wells treated with DMSO only (0.33%) and was calculated using non-linear regression analyswas. IC50 values were given in Table 2 for the compounds listed.

For assay [2], the system named is MDA-MB-231. Kind of assay: Cell viability MTS assay. The format is cell-based, human. The method, then:
as §1

Setting [3] is: Homo sapiens, HT-29, 72 hours with compound.
Setting [4] is: Homo sapiens, MDA-MB-231, 72 hours with compound.

`O=C1NC(=O)[C@@H](c2cn3c4c(cccc24)CCC3)[C@@H]1c1c[nH]c2ccc(-c3cccc4ccccc34)cc12` (racemic) [Example 37, (±)-Trans-3-(5,6-dihydro-4H-pyrrolo[3,2,1-ij]quinolin-1yl)-4-(5-(1-naphthyl)-1H-indol-3-yl)pyrrolidine-2,5-dione]: the results for the IC50 in assay [1] (setting [3]) and in assay [2] (setting [4]) were 37.4 µM and 43.4 µM, respectively.

On to `O=C1NC(=O)C(c2cn3c4c(cccc24)CN(C(=O)OCc2ccccc2)CC3)=C1c1c[nH]c2ccccc12` [Example 73, 7-[4-(1H-indol-3-yl)-2,5-dioxo-2,5-dihydro-1H-pyrrol-3-yl]-3,4-dihydro-1H-[1.4]diazepino[6,7,1-hi]indole-2-carboxylic acid benzyl ester], for which the IC50 in assay [1] (72 hours with compound) and in assay [2] (72 hours with compound) was above 100 µM in each case.

With `O=C1NC(=O)C(c2cn3c4c(cccc24)CCC3)=C1c1ccc2c(c1)OCO2` [Example 11, 3-Benzo[1,3]dioxol-5-yl-4-(5,6-dihydro-4H-pyrrolo[3,2,1-ij]quinolin-1-yl)-pyrrole-2,5-dione], the IC50 in assay [1] (setting [3]) and in assay [2] (setting [4]) was above 100 µM throughout.

As for `O=C1NC(=O)[C@@H](c2cn3c4c(cccc24)CNCC3)[C@@H]1c1c[nH]c2ccccc12` (racemic) [Example 75, (±)-Trans-3-(1H-indol-3-yl)-4-(1,2,3,4-tetrahydro-[1,4]diazepino[6,7,1-hi]indol-7-yl)-pyrrolidine-2,5-dione], the IC50 in assay [1] (setting [3]) and in assay [2] (setting [4]) was above 100 µM throughout.

With `O=C(OCN1C(=O)[C@@H](c2c[nH]c3ccccc23)[C@H](c2cn3c4c(cccc24)CCC3)C1=O)c1ccncc1` (racemic) [Example 60, (±)-trans-Isonicotinic acid-3-(5,6-dihydro-4H-pyrrolo[3,2,1-ij]quinolin-1-yl)-4-(1H-indol-3-yl)-2,5-dioxo-pyrrolidin-1-ylmethyl ester], the IC50 was 3.59 µM in assay [1] (setting [3]) and 3.55 µM in assay [2] (setting [4]).

`O=C1NC(=O)[C@@H](c2cn3c4c(cccc24)CCC3)[C@@H]1c1ccccc1F` (racemic) [Example 46, (±)-Trans-3-(5,6-dihydro-4H-pyrrolo[3,2,1-ij]quinolin-1yl)-4-(2-fluorophenyl)pyrrolidine-2,5-dione]: the IC50 in assay [1] (setting [3]) is 4.76 µM; in assay [2] (setting [4]) it was above 100 µM.

As for `O=C1NC(=O)C(c2cn3c4c(cccc24)CCC3)=C1c1cccs1` [Example 7, 3-(5,6-Dihydro-4H-pyrrolo[3,2,1-ij]quinolin-1-yl)-4-thiophen-2-yl-pyrrole-2,5-dione], the IC50 in assay [1] (setting [3]) and in assay [2] (setting [4]) was above 100 µM in each case.

`O=C1NC(=O)[C@@H](c2cn3c4c(cccc24)CCC3)[C@@H]1c1ccc(OC(F)(F)F)cc1` (racemic) [Example 44, (±)-Trans-3-(5,6-dihydro-4H-pyrrolo[3,2,1-ij]quinolin-1yl)-4-(4-trifluoromethoxyphenyl)pyrrolidine-2,5-dione]: the IC50 in assay [1] (setting [3]) was 12.5 µM; in assay [2] (setting [4]), 14.1 µM.

Regarding `O=C1NC(=O)C(c2cn3c4c(cccc24)CCC3)=C1c1cc2ccccc2s1` [Example 13, 3-Benzo[b]thiophen-2-yl-4-(5,6-dihydro-4H-pyrrolo[3,2,1-ij]quinolin-1-yl)-pyrrole-2,5-dione], the IC50 was above 100 µM in assay [1] (setting [3]) and 78.8 µM in assay [2] (setting [4]).

As for `CN(C)CC(=O)OCN1C(=O)[C@@H](c2c[nH]c3ccccc23)[C@H](c2cn3c4c(cccc24)CCC3)C1=O` (racemic) [Example 59, (±)-trans-2-dimethylamino-acetic acid-3-(5,6-dihydro-4H-pyrrolo[3,2,1-ij]quinolin-1-yl)-4-(1H-indol-3-yl)-2,5-dioxo-pyrrolidin-1-ylmethyl ester], the IC50 in assay [1] (setting [3]) was determined as 3.74 µM; in assay [2] (setting [4]), 4.47 µM.

With `O=C1NC(=O)C(c2cn3c4c(cccc24)CCC3)=C1c1ccccc1Cl` [Example 16, 3-(5,6-Dihydro-4H-pyrrolo[3,2,1-ij]quinolin-1-yl)-4-(2-chloro-phenyl)-pyrrole-2,5-dione], the 50% inhibitory concentration (IC50) came out at 40.9 µM in assay [1] (setting [3]) and 21.5 µM in assay [2] (setting [4]).
